Usually Ki stands for the equilibrium dissociation constant of an inhibitor or competing ligand from its target.

Active and inactive are the calls of the source. The rule behind the calls is not given here.

The subject of data set [1] is Rattus norvegicus. Nature of the data set: Cardiotoxicity in Wistar rat assessed as decrease in cardiac beats per minute at 10 mg/kg, iv by ECG. More on the design: dose 10 mg/kg, route intravenous; scale not given: the % may be the effect or the level left. It counts as toxicity, organism-based, Heart. As to conditions: in vivo.
Data set [2] relates to Rattus norvegicus. Kind of data set: Cardiotoxicity in Wistar rat assessed as prolongation of QT interval at 10 mg/kg, iv by ECG. It counts as toxicity, organism-based. More on the design: dose 10 mg/kg, route intravenous. As to conditions: in vivo.
For data set [3], the system named is Rattus norvegicus. Kind of data set: Antiarrhythmic activity in anaesthetized iv dosed Wistar rat assessed as decrease in adrenaline-induced cardiac rhythm disturbance administered 15 mins before adrenaline challenge. The conditions noted are these: Heart. It counts as functional.
Data set [4] concerns Rattus norvegicus. Nature of the data set: Hypotensive activity in normotensive Wistar rat assessed as reduction in systolic blood pressure at 5 mg/kg, iv. It counts as functional, Artery. More on the design: scale not given: the % may be the effect or the level left.
Data set [5] concerns Rattus norvegicus. Nature of the data set: Hypotensive activity in normotensive Wistar rat assessed as reduction in diastolic blood pressure at 5 mg/kg, iv. It counts as functional, Artery. The arrangement: scale not given: the % may be the effect or the level left.
Data set [6] has as its target T1, Adrenergic receptor alpha-1 (Rattus norvegicus, UniProt P15823+P23944+P43140).
T1 sequence (P15823 whole entry): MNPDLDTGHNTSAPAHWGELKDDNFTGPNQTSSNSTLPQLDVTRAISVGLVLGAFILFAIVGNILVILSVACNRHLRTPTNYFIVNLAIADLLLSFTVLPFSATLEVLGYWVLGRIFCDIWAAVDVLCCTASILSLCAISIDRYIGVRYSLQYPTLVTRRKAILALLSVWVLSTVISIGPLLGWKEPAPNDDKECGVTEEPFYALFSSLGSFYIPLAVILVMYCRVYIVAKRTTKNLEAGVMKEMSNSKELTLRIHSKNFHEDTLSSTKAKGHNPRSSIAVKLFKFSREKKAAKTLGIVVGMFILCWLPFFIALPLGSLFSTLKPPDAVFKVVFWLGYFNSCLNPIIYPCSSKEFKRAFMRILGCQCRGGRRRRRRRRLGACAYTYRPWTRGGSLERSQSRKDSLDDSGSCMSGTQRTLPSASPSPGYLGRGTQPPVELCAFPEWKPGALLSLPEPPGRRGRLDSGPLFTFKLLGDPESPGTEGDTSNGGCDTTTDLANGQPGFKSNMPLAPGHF
T1 sequence (P23944 whole entry): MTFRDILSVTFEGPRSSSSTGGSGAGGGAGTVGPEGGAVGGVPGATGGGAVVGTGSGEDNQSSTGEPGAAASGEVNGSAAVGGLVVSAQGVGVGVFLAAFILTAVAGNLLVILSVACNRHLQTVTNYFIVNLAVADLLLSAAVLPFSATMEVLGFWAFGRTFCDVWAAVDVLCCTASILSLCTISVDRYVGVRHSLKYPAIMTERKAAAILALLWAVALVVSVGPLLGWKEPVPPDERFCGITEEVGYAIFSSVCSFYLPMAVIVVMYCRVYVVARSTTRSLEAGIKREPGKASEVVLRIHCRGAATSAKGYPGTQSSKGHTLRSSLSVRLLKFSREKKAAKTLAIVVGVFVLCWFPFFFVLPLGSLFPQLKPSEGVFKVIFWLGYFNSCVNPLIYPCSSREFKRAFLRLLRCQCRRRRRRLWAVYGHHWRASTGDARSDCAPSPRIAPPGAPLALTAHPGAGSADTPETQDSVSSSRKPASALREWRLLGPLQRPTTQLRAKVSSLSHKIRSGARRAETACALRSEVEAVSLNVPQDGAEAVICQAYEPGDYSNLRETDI
T1 sequence (P43140 whole entry): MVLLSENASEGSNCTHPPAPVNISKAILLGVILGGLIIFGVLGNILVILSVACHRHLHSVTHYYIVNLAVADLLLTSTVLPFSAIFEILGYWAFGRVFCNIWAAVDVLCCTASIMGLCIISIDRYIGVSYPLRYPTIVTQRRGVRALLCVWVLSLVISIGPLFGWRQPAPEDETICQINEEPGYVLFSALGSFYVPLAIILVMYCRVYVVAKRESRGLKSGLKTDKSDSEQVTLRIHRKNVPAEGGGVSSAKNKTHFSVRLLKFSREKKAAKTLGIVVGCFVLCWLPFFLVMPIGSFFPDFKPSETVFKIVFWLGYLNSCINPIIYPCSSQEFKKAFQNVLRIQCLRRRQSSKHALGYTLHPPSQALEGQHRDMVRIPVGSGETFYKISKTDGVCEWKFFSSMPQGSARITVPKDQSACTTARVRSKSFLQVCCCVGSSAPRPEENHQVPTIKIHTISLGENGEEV
Nature of the data set: Displacement of [3H]prazosin from alpha1 adrenergic receptor in rat cerebral cortex by liquid scintillation counting. It counts as tissue-based. (Displacement assays read how much labelled ligand stays bound in the presence of the test substance.)

Data set [7] concerns Mus musculus. Nature of the data set: Anticonvulsant activity in CF1 mouse assessed as inhibition of maximal electroshock-induced seizures at 30 mg/kg, ip after 0.5 hrs. More on the design: dose 30 mg/kg. It counts as functional, organism-based. In general terms: Protection in the maximal electroshock model is a classic sign of anticonvulsant action.
Data set [8] concerns Mus musculus. Kind of data set: Anticonvulsant activity in CF1 mouse assessed as inhibition of maximal electroshock-induced seizures at 100 mg/kg, ip after 0.5 hrs. It counts as functional, organism-based. The arrangement: dose 100 mg/kg.
Data set [9] concerns Mus musculus. Nature of the data set: Anticonvulsant activity in CF1 mouse assessed as inhibition of maximal electroshock-induced seizures at 300 mg/kg, ip after 0.5 hrs. More on the design: dose 300 mg/kg. It counts as functional, organism-based.
Data set [10] deals with Mus musculus. Kind of data set: Anticonvulsant activity in CF1 mouse assessed as inhibition of maximal electroshock-induced seizures at 30 mg/kg, ip after 4 hrs. It counts as functional, organism-based. The arrangement: dose 30 mg/kg.
In data set [11] the test system is Mus musculus. Kind of data set: Anticonvulsant activity in CF1 mouse assessed as inhibition of maximal electroshock-induced seizures at 100 mg/kg, ip after 4 hrs. The arrangement: dose 100 mg/kg. It counts as functional, organism-based.
Data set [12] deals with Mus musculus. Nature of the data set: Anticonvulsant activity in CF1 mouse assessed as inhibition of maximal electroshock-induced seizures at 300 mg/kg, ip after 4 hrs. It counts as functional, organism-based. More on the design: dose 300 mg/kg.
For data set [13], the system named is Mus musculus. Kind of data set: Anticonvulsant activity in CF1 mouse assessed as inhibition of subcutaneous pentylenetetrazole-induced seizures. It counts as functional, organism-based.
Data set [14] has as its system Mus musculus. Nature of the data set: Neurotoxicity in CF1 mouse at 300 mg/kg, ip after 0.5 hrs by rotarod test. It counts as toxicity, organism-based. The arrangement: dose 300 mg/kg, route intraperitoneal. The conditions noted are these: in vivo. In general terms: Falling from the rotarod earlier than controls is read as motor impairment.
The test system of data set [15] is Mus musculus. Nature of the data set: Neurotoxicity in CF1 mouse at 30 mg/kg, ip after 4 hrs by rotarod test. It counts as toxicity, organism-based. The arrangement: dose 30 mg/kg, route intraperitoneal. The conditions noted are these: in vivo.
Data set [16] relates to Mus musculus. Nature of the data set: Neurotoxicity in CF1 mouse at 100 mg/kg, ip after 4 hrs by rotarod test. It counts as toxicity, organism-based. More on the design: dose 100 mg/kg, route intraperitoneal. As to conditions: in vivo.
The test system of data set [17] is Mus musculus. Kind of data set: Neurotoxicity in CF1 mouse at 300 mg/kg, ip after 4 hrs by rotarod test. More on the design: dose 300 mg/kg, route intraperitoneal. It counts as toxicity, organism-based. As to conditions: in vivo.
The target in data set [18] is Beta-1 adrenergic receptor (Rattus norvegicus, UniProt P18090). Nature of the data set: biochemical.
Chain of Beta-1 adrenergic receptor (P18090 whole entry): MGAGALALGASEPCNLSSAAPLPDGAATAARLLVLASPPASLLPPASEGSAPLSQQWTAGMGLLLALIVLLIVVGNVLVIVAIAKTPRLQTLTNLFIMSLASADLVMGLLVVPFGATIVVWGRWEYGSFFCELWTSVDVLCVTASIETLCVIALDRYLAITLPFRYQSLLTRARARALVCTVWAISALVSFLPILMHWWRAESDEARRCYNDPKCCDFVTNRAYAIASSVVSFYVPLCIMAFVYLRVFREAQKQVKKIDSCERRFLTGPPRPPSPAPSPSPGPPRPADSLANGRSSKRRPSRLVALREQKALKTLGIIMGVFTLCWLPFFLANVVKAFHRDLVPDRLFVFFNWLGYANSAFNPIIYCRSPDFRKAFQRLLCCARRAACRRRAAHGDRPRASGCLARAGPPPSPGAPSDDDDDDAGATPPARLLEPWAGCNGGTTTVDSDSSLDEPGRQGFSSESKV
Description: Displacement of [3H]CGP12177 from beta-1 adrenergic receptor in rat cerebral cortex by liquid scintillation counting
The subject of data set [19] is Rattus norvegicus. Kind of data set: Hypotensive activity in normotensive Wistar rat assessed as reduction in systolic blood pressure at 10 mg/kg, iv. It counts as functional. More on the design: scale not given: the % may be the effect or the level left.
Data set [20] deals with Rattus norvegicus. Kind of data set: Hypotensive activity in normotensive Wistar rat assessed as reduction in diastolic blood pressure at 10 mg/kg, iv. The arrangement: scale not given: the % may be the effect or the level left. It counts as functional, Artery.
The subject of data set [21] is Mus musculus. Nature of the data set: Neurotoxicity in CF1 mouse at 30 mg/kg, ip after 0.5 hrs by rotarod test. It counts as toxicity, organism-based. The arrangement: dose 30 mg/kg, route intraperitoneal. As to conditions: in vivo.
Data set [22] deals with Mus musculus. Nature of the data set: Neurotoxicity in CF1 mouse at 100 mg/kg, ip after 0.5 hrs by rotarod test. As to conditions: in vivo. The arrangement: dose 100 mg/kg, route intraperitoneal. It counts as toxicity, organism-based.

For `C=CCNCC(O)COc1cccc2c(=O)c3ccccc3oc12.Cl` (centres undefined), the Activity was 24% with Rattus norvegicus [1]; 17% in the data set with Rattus norvegicus [2]; 9% with Rattus norvegicus [4]; 11% in the data set with Rattus norvegicus [5]; 50% in the data set with Mus musculus [14]; “Non-toxic” in the data set with Mus musculus [15]. Moreover, the Activity result in the data set on Mus musculus [16] and in the data set with Mus musculus [17] was “Non-toxic” in each case. Moreover, the result with Rattus norvegicus [3] was Active. Moreover, the Ki was found to be 7.3 µM in data set [6] and 0.084 µM in data set [18]. For the same compound, the outcome in the data set on Mus musculus [7], in the data set on Mus musculus [8], in the data set with Mus musculus [9], in the data set with Mus musculus [10], with Mus musculus [11] and in the data set on Mus musculus [12] was inactive. The result in the data set on Mus musculus [13] was inactive.

On to `C=CCNCC(O)COc1ccc2oc3ccccc3c(=O)c2c1.Cl` (centres undefined), for which the outcome with Rattus norvegicus [3], in the data set on Mus musculus [9] and in the data set with Mus musculus [12] was Active. The Activity in the data set on Rattus norvegicus [19] was 10%; with Rattus norvegicus [20] it was 11%; with Mus musculus [21], “Non-toxic”; in the data set with Mus musculus [22] it was “Non-toxic”; in the data set with Mus musculus [14], “Toxic”; with Mus musculus [15] it was “Non-toxic”. Moreover, in the data set on Mus musculus [16], the Activity result is “Non-toxic”. The Ki was found to be 4.9 µM in [6] and 30.9 µM in data set [18]. Besides, the outcome in the data set on Mus musculus [7], in the data set on Mus musculus [10], in the data set with Mus musculus [11] and in the data set with Mus musculus [13] was inactive.

Source of the values: ChEMBL document CHEMBL1143364, “Preliminary evaluation of pharmacological properties of some xanthone derivatives” (Bioorg Med Chem, 2009).
